In ChEMBL document CHEMBL3808304, “Design, Synthesis, and Biological Evaluation of Indoline and Indole Derivatives as Potent and Selective α1A-Adrenoceptor Antagonists” (J Med Chem, 2016):

Columns and labels:
Assay type in all cases: ADME, organism-based
[1] = Tmax in rat at 20 mg/kg, po; details: in vivo
[2] = AUC (0 to infinity) in rat at 20 mg/kg, po; parameters: dose 20 mg/kg, route oral, time infinity; details: in vivo
[3] = MRT in rat at 10 mg/kg, iv; details: in vivo
[4] = Tmax in rat at 10 mg/kg, iv; details: in vivo
[5] = Half life in rat at 10 mg/kg, iv; details: in vivo
[6] = AUC (0 to infinity) in rat at 10 mg/kg, iv; parameters: dose 10 mg/kg, time infinity, route intravenous; details: in vivo
[7] = Cmax in rat at 20 mg/kg, po; parameters: dose 20 mg/kg, route oral; details: in vivo
[8] = Cmax in rat at 10 mg/kg, iv; parameters: dose 10 mg/kg, route intravenous; details: in vivo
[9] = Apparent clearance in rat at 10 mg/kg, iv; details: in vivo, read-out: CL(app) (converted)
[10] = Oral bioavailability in rat at 20 mg/kg; details: in vivo
[11] = Half life in rat at 20 mg/kg, po; details: in vivo
[12] = MRT in rat at 20 mg/kg, po; details: in vivo

Tmax [1] | AUC(0-inf) [2] | MRT [3] | Tmax [4] | half-life [5] | AUC(0-inf) [6] | Cmax [7] | Cmax [8] | clearance [9] | bioavailability [10] | half-life [11] | MRT [12] | Structure (SMILES)
0.5 h | 613 ng·h/mL | 2.94 h | 4.98 min | 1.1 h | 4400 ng·h/mL | 109 ng/mL | 2430 ng/mL | 37.9 mL/min/kg | 7% | 1.22 h | 3.54 h | Cc1ccc(OCC(F)(F)F)c(OCCN[C@H](C)Cc2cc(C(N)=O)c3c(ccn3CCCO)c2)c1
4 h | 1700 ng·h/mL | 2.34 h | 4.98 min | 1.63 h | 3510 ng·h/mL | 152 ng/mL | 3000 ng/mL | 47.5 mL/min/kg | 24.3% | 4.67 h | 6.22 h | C[C@H](Cc1cc2c(c(C(N)=O)c1)N(CCCO)CC2)NCCOc1cc(Cl)ccc1OCC(F)(F)F
